Assay results reported in US12685780B2, “Immune inducer containing polynucleotide-peptide conjugate and pharmaceutical composition containing same” (The University of Kitakyushu, priority 2020, dated 2026).
“Also recorded” adds a separate entry of the source. One block for each substance: values may come before it.

How the values were obtained:
[1] = system: antigen-retaining splenocytes (TRP2-9); assay: Induction of cytotoxic T lymphocytes in mice (in vivo CTL assay, flow cytometry), mTRP2 antigen; set-up: species or system C57BL/6 mice; conditions: antigen TRP2-9
MHC-1 on DC2.4 cells = target: T1, MHC-1 on DC2.4 cells (Mus musculus, UniProt P01901); assay: Competitive inhibition of binding of OVA peptide 1 to MHC-1 on DC2.4 cells; set-up: species or system murine; conditions: peptide 2.5 μg/mL against OVA peptide 1 0.25 μg/mL, on ice 30 minutes
T1 construct: endogenous in cells; host or cells: DC2.4 murine dendritic cell line
T1 sequence (P01901 22-369): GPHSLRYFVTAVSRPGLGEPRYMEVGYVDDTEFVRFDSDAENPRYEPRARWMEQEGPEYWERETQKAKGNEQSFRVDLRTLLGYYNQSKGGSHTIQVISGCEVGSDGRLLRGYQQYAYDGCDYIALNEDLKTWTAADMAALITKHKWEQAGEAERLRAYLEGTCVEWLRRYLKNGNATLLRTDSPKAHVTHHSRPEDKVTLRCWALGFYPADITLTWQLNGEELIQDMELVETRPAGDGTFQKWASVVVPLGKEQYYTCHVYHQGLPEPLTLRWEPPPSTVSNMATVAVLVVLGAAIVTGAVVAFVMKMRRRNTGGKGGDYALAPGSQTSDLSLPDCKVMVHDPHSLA
T1 sequence (P01887 21-119 partner): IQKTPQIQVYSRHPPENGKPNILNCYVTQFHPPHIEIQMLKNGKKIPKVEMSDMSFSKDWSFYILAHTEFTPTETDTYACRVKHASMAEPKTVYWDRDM
Description: Murine dendritic cell line, DC2.4 cells, were detached from a dish, and suspended in 1.5 mL tubes at a concentration of 1.5×10^5 cells per […] of PBS.

Substance: CpG30(S)a-mTRP2pep9: CpG30(S)a (SEQ ID NO: 6, phosphorothioate) conjugated via disulfide spacer to peptide C-TRP2-8 (CVYDFFVWL) (DNA gagcgttctcatcgactctcgagcgttctc; phosphorothioate; disulfide spacer conjugate; K3-30(a))
CTL-inducing ability (decrease in antigen-retaining splenocytes) ([1]; 200 ng per mouse in terms of peptide, intracutaneous, single dose): marked decrease in antigen-retaining splenocytes; also recorded: can induce potent CTL activity | CTL-inducing ability (decrease in antigen-retaining splenocytes) ([1]; dose not stated): high CTL-inducing ability | Dose dependency of CTL-inducing ability ([1]; doses of 50, 200 or 1000 ng per mouse in terms of peptide): dose dependency

Inhibitory activity against binding of OVA peptide 1 to MHC class I molecules (MHC-1 on DC2.4 cells): no inhibitory activity was observed
Substance: C-TRP2-9: CSVYDFFVWL (SEQ ID NO: 31); cysteine added to the N-terminus of TRP2-9 (C-TRP2-9)

Substance: CpG20(S)a-mTRP2pep9: CpG20(S)a (SEQ ID NO: 1) conjugated to peptide C-TRP2-8 (CVYDFFVWL) (DNA atcgactctcgagcgttctc; oligonucleotide-peptide conjugate; K3)
CTL-inducing ability (decrease in antigen-retaining splenocytes) ([1]; dose not stated): high CTL-inducing ability

Decrease of average fluorescence intensity (OVA peptide 1-MHC-1 complexes on DC2.4 cells) (MHC-1 on DC2.4 cells): 23%
Substance: C-TRP2-8: CVYDFFVWL (SEQ ID NO: 32); cysteine added to N-terminus of amino acid residues 181 to 188 of mTRP2 (C-TRP2-8)
